Data taken from publication PMC9065877, “Safety, tolerability and pharmacokinetics of the oligomer modulator anle138b with exposure levels sufficient for therapeutic efficacy in a murine Parkinson model: A randomised, double-blind, placebo-controlled phase 1a trial” (EBioMedicine, 2022).
Where two headings read alike, the source gives them in different places.

Columns and labels:
[1] = Oral pharmacokinetics, overall statements across SAD, MAD and FES parts; assay type: in vivo, human
Procedure: As a safety precaution, sentinel dosing was performed for all SAD and MAD cohorts. In SAD, subjects received a single dose of anle138b or placebo after fasting from all food and drink (except water) for a minimum of 8 h prior to dosing. The dosing in the four SAD-cohorts were 50 mg, 100 mg, 200 mg and 300 mg of free anle138b equivalent, respectively. In the MAD part, participants received anle138b or placebo once daily (QD) for 7 days after fasting from all food and drink (except water) for a minimum of 8 h prior to dosing. The dosing in the three MAD-cohorts was 100 mg, 200 mg and 300 mg of free anle138b equivalent, respectively. Post dosing mouth and hand checks were conducted to ensure the capsules were swallowed. In-study decisions regarding continuation and dose escalation were made by the safety advisory committee (SAC) comprising the principal investigator, the sponsor's medical monitor and a PK expert. For dose escalation to proceed, data needed to be available from a minimum of 6 subjects per cohort with completed per protocol safety and PK assessments up to 48 h after dosing to ensure at least 4 subjects had received active IMP. The decision to proceed to the next higher dose level was based on safety, tolerability and available PK data to 48 h post-dose. The following data were required: Adverse events, vital signs, safety laboratory, ECG, physical examinations, plasma concentrations of anle138b with interim PK parameter estimations (Tmax, Cmax, AUC(0-24), AUC(0-tau), AUC(0-last) and T½, where applicable). Data were provided to the SAC in accordance with Quotient Sciences’ standard operating procedure (SOP) on interim dose decision-making and dose escalation. […]
Secondary outcome measures were the oral PK of single (SAD) and multiple (MAD) ascending doses of anle138b in the fasted state as well as the effect of co-administration with food on the PK of anle138b. […] Time point of last quantifiable data was seen to increase with an increase in dose as follows: SAD: from the 50mg dose (subjects ranged between 8-24h) to the 300mg dose (subjects ranged between 36-48h). […]

[2] = 28-day cynomolgus monkey toxicity study; details: in vivo; for Cmax: 125 mg/kg/day, read-out: Cmax at NOAEL
Description: This trial followed the recommendations of the EMA (European Medicines Agency) (EMEA/CHMP/SWP/28367/07 Rev. 1; 20 July 2017) and the FDA (Food and Drug Administration) (Guidance for Industry: Estimating the Maximum Safe Starting Dose in Initial Clinical Trials for Therapeutics in Adult Healthy Volunteers. U.S. Department of Health and Human Services Food and Drug Administration Center for Drug Evaluation and Research (CDER) July 2005) for dose finding in a first-in-human study. The safe starting dose was set based on toxicity studies in animals. In a 28-day toxicity study in rats, the no-observed-adverse-effect-level (NOAEL) was determined to be 50 mg/kg/day (human equivalent dose of 8·1 mg/kg using the FDA factor of 6·2 according to the FDA Guidance for Industry “Estimating the Maximum Safe Starting Dose in Initial Clinical Trials for Therapeutics in Adult Healthy Volunteers”). Cmaxǀexposure at 50 mg in males were 2460ǀ25600 and in females 2680ǀ21700 ng/mL ǀ ng*h/mL. In a 28-day cynomolgus monkey toxicity study, the NOAEL was 125 mg/kg/day (human equivalent dose of 40·3 mg/kg). Cmaxǀexposure at 125 mg/kg/day were 3170ǀ15700 (males) and 2720ǀ9720 (females) ng/mL ǀ ng*h/mL. Based upon these NOAELs a safe starting dose derived from the more sensitive species (rat) was calculated using a safety factor of 10 (i.e., 0·8 mg/kg), which corresponds to a dose of approximately 50 mg assuming a body weight of 60 kg. […] Escalation between doses was planned to be flexible depending on emerging results but not to exceed an increment of 2-fold.

For `Brc1cccc(-c2cc(-c3ccc4c(c3)OCO4)n[nH]2)c1` [anle138b, 3-(1,3-benzodioxol-5-yl)-5-(3-bromophenyl)-1H-pyrazole], the half-life ([1]; human, plasma, oral, authors' conclusion from SAD data, read-out: true T½ of anle138b in human plasma) was no less than 10 h, the practical elimination half-time ([1]; overall PK data) was roughly 12 h and the “Bioavailability (in words)” value ([1]; overall PK data, fasted and fed conditions) was “good bioavailability”. The Cmax ([2]; female, females) was 2720 ng/mL, the NOAEL at 28 days ([2]; 28-day toxicity study) was 125 mg/kg/day and the Cmax ([2]; male, males) was 3170 ng/mL.
